Experimental data: patent US12714706B2, “Methods of treating small cell lung cancer with lurbinectedin formulations” (PHARMA MAR, S.A., priority 2019, dated 2026)
≈ marks a conversion by molar mass, not a printed value. Where “and” joins values, the source holds several entries; their conditions need not be identical. Equal values may be shown once.

Key:
[1] = Maximum solubility of lurbinectedin in various buffers pH 4 (impact of buffer molarity)
Description: (§1) Bulk solutions of phosphate, acetate, citrate, lactate and succinate buffers were prepared to determine maximum solubility of lurbinectedin.

[2] = Maximum solubility of lurbinectedin in different molarities of lactic acid; assay type: physicochemical; settings: lactic acid solution, aqueous buffer
Description: As such, in embodiments, a concentrated lurbinectedin solution is prepared in organic acid before addition of other excipients. In preferred embodiments, the organic acid has a pH less than 4, preferably less than 3.5, more preferably less than 3, or around 3. The maximum solubility of lurbinectedin was investigated in different molarities of the organic acid lactic acid. […] In a preferred embodiment, lurbinectedin is dissolved in an organic acid with a molarity of around 0.1M to 0.5M, preferably around 0.2M to 0.4M, more preferably around 0.3M organic acid. An exemplary molarity is 0.31M organic acid.

SCLC = assay: Post-hoc exploratory analysis of response in SCLC patients who had previously received immunotherapy; assay type: in vivo, human; settings: for Lurbinectedin treatment: OS / Lurbinectedin treatment: DoR / Lurbinectedin treatment: PFS: individual SCLC patients with prior immunotherapy
Description: Post-hoc exploratory analysis was done on the response in patients who had previously received immunotherapy (n=8).

physchem = settings: pH 4, aqueous buffer
Description: as §1

[3] = Phase 2 trial of lurbinectedin monotherapy: plasma pharmacokinetics; assay type: in vivo; settings: human, intravenous, 3.2 mg/m^2 as 1-hour infusion
Description: The plasma PK of lurbinectedin was evaluated during Cycles 1 and 2 in all treated patients. The sampling schedule is shown in Table 15 and Table 16, respectively.
PK analysis of plasma-concentration-time data of lurbinectedin was performed using non-linear mixed-effects modeling and/or non-compartment analysis.

advanced solid tumors = assay: Lurbinectedin plus irinotecan trial: efficacy per tumor type (RECIST v1.1, PFS, OS); assay type: in vivo, human; settings: all doses
Description: Secondary outcome measures included safety evaluation, peak plasma concentration (Cmax), area-under-the plasma concentration versus time curve (AUC), volume of distribution based on the terminal half-life (Vz), volume of distribution at steady state (Vss), clearance (CL), half-life (t½), evaluation of antitumor response (RECIST v1.1, start of treatment until PD, other antitumor therapy, death or until 12 months after the inclusion of the last evaluable patient in the study (end of study), whichever occurs first), progression-free survival (from the date of first infusion of study treatment to the date of progression or death or until 12 months after end of study, whichever occurs first), and overall survival (from the date of first infusion to study treatment to the date or death or until 12 months after end of study, whichever occurs first).
Encouraging activity has been observed in patients with SOLO, including some cases as third line treatment. Signals of activity were also observed in endometrial carcinoma and soft tissue sarcoma (STS) and glioblastoma (GBM). Consequently, a Phase II expansion at the RD to further explore efficacy and safety in SOLO, GBM, STS, and endometrial carcinoma. A total of […] patients were treated at the RD, including n=15 SOLO, n=11 endometrial cancer, n=10 STS, and n=20 GBM patients.

[4] = resistant disease, listed as Lurbinectedin

Which results are given for `COc1ccc2[nH]c3c(c2c1)CCN[C@]31CS[C@@H]2c3c(OC(C)=O)c(C)c4c(c3[C@H](COC1=O)N1[C@@H]2[C@H]2c3c(cc(C)c(OC)c3O)C[C@@H]([C@@H]1O)N2C)OCO4` [lurbinectedin, Lurbinectedin]?
Lurbinectedin maximum solubility ([1]; Monopotassium phosphate buffer pH 4, 0.06-01 M): 320 µg/mL; Lurbinectedin maximum solubility ([1]; Sodium acetate buffer pH 4, 0.06-01 M): 860 µg/mL; Lurbinectedin maximum solubility ([1]; Sodium lactate buffer pH 4, 0.06-01 M): 920 µg/mL; solubility ([2]; 0.05M lactic acid): 7200 µg/mL (≈ 9170 µM); solubility ([2]; 0.5M lactic acid): 90400 µg/mL (≈ 115000 µM); Lurbinectedin treatment: OS (SCLC; resistant disease): 12.6 months; Lurbinectedin treatment: DoR (SCLC; [4]): 5.6 months and 5.3 months and 5.1 months; Lurbinectedin treatment: OS (SCLC; [4]): 12.0 months and 4.9 months and 14.9 months and 6.9+ months; Lurbinectedin treatment: PFS (SCLC; [4]): 6.0 months and 1.3 months and 8.3 months and 6.9 months and 6.3 months; Lurbinectedin treatment: DoR (SCLC; sensitive disease): 6.4 months and 2.8 months; Lurbinectedin treatment: OS (SCLC; sensitive disease): 9.3 months and 10.8 months and 2.3 months; Lurbinectedin treatment: PFS (SCLC; sensitive disease): 7.6 months and 4.7 months and 1.3 months; Response to single-agent lurbinectedin in patients who had previously received immunotherapy (SCLC; post-hoc, n=8): trend for a better response; solubility (physchem; monopotassium phosphate buffer): 210 µg/mL (≈ 268 µM); solubility (physchem; sodium acetate buffer): 940 µg/mL (≈ 1200 µM); solubility (physchem; sodium citrate buffer): 930 µg/mL (≈ 1180 µM); solubility (physchem; sodium lactate buffer): 900 µg/mL (≈ 1150 µM); solubility (physchem; sodium succinate buffer): 970 µg/mL (≈ 1240 µM); AUC(0-inf) [3]: ~551 ng·h/mL; Cmax ([3]; read-out: Mean total plasma Cmax): ~107 ng/mL; CBR (ORR + SD >4 mo) (advanced solid tumors; Endometrial (n = 10 evaluable)): 60%; DCR (ORR + SD) (advanced solid tumors; Endometrial (n = 10 evaluable)): 100%; Median DoR (advanced solid tumors; Endometrial (n = 10 evaluable)): 4.6 mo; Median PFS (advanced solid tumors; Endometrial (n = 10 evaluable)): 7.1 mo; ORR* (PR) (advanced solid tumors; Endometrial (n = 10 evaluable)): 3 (30) n(%); PFS rate at 6 mo (advanced solid tumors; Endometrial (n = 10 evaluable)): 50%; CBR (ORR + SD >4 mo) (advanced solid tumors; GBM (n = 16 evaluable)): 18.8%; DCR (ORR + SD) (advanced solid tumors; GBM (n = 16 evaluable)): 43.8%; Median PFS (advanced solid tumors; GBM (n = 16 evaluable)): 1.4 mo; ORR* (PR) (advanced solid tumors; GBM (n = 16 evaluable)): 1 (6.3) n(%); PFS rate at 6 mo (advanced solid tumors; GBM (n = 16 evaluable)): 7.1%; CBR (ORR + SD >4 mo) (advanced solid tumors; SCLC (n = 13 evaluable)): 76.9%; DCR (ORR + SD) (advanced solid tumors; SCLC (n = 13 evaluable)): 84.6%; Median DoR (advanced solid tumors; SCLC (n = 13 evaluable)): 4.6 mo; Median PFS (advanced solid tumors; SCLC (n = 13 evaluable)): 4.3 mo; ORR* (PR) (advanced solid tumors; SCLC (n = 13 evaluable)): 9 (69.2) n(%); PFS rate at 6 mo (advanced solid tumors; SCLC (n = 13 evaluable)): 36.3%; CBR (ORR + SD >4 mo) (advanced solid tumors; STS (n = 10 evaluable)): 40%; DCR (ORR + SD) (advanced solid tumors; STS (n = 10 evaluable)): 80%; Median PFS (advanced solid tumors; STS (n = 10 evaluable)): 2.6 mo; ORR* (PR) (advanced solid tumors; STS (n = 10 evaluable)): 0 n(%); PFS rate at 6 mo (advanced solid tumors; STS (n = 10 evaluable)): 33.8%
